Test results taken from US10758517B2, “mPGES-1 inhibitor for the treatment of osteoarthritis pain” (Glenmark Pharmaceuticals S.A., priority 2017, dated 2020).

What was measured:
[1] = tested on: LPS-induced PGE2 release; assay: Ex vivo LPS-induced PGE2 release in whole blood, single ascending oral doses (Example 1, Part 1a); set-up: species or system human; details: for EAUC0-24 h, Difference in LS mean versus placebo / EAUC0-24 h, LS mean / EAUC0-336 h, Difference in LS mean versus placebo / EAUC0-336 h, LS mean / ETmax (time to reach maximum effect), Median / ETmax, Median difference versus placebo / Epeak (maximum % inhibition), LS mean / Epeak, Difference in LS mean versus placebo: fasted healthy subjects
Protocol: (§1) In Part 1a, single doses of Compound I of 10 mg (Group A), 30 mg (Group B), 100 mg (Group C), 250 mg (Group D), 500 mg (Group E) and 1000 mg (Group F) were administered after fasting. In each dose group, 6 subjects received Compound I and 2 subjects received placebo.
In Parts 1a and 3, whole blood samples were incubated and analyzed for lipopolysaccharide (LPS)-induced prostaglandin PGE2 release. In Part 3, urine samples were collected for analysis of prostanoid metabolites.
(§2) Summary statistics were presented for the PK, pharmacodynamic (PD) and safety data, as appropriate. PK parameters following single oral doses of Compound I were determined from the plasma concentrations of Compound I using non-compartmental procedures in WinNonlin Dose proportionality was assessed using a power model, with tmax analyzed using the Kruskal-Wallis test. The effect of food on PK was assessed at the 100 and 250 mg doses using a mixed effects model. The effect of age on PK was assessed for elderly (>65 years) versus non-elderly (<65 years) at the 250 mg dose level in Parts 1a and 2, using an analysis of variance (ANOVA) with age as a fixed effect. For PD analyses, percent decrease of ex vivo LPS-induced PGE2 release was calculated. For Part 3, urinary excretion of prostanoid metabolites was also evaluated. The data are presented as absolute, as well as creatinine normalized urinary biomarker amounts, along percent change from baseline over a definite time interval. The percent change from baseline in urinary biomarkers was assessed using an analysis of covariance (ANCOVA) model
Percent change in ex vivo LPS-induced PGE2 release in whole blood is the pharmacodynamic (PD) biomarker. The PGE2 levels in whole blood were estimated using the homogeneous time-resolved fluorescence method.
Concentrations below the limit of quantification were treated as ½ the lower limit of quantification for calculation.
Time points where unstimulated PGE2 concentration was more than 3 times greater than the mean unstimulated PGE2 and equal to or greater than ½ baseline value for an individual subject were not included in the calculation of percent inhibition. If pre-dose LPS-induced PGE2 was less than unstimulated PGE2, the value was not used for calculation of percent inhibition.

[2] = Plasma pharmacokinetics after single oral doses (Example 1); assay type: in vivo, human; details: for dose proportionality of exposure: single oral doses
Protocol: as §1
In Part 2, a dose of 250 mg was administered after fasting. 6 subjects received Compound I and 2 subjects received placebo.
Blood and urine samples for the analysis of plasma and urinary concentrations of Compound I.
as §2

[3] = Safety and tolerability of single oral doses (Example 1); assay type: in vivo, human; details: single doses up to 1000 mg
Protocol: as §1
Adverse events (AEs), vital signs, 12-lead electrocardiogram (ECG), clinical laboratory evaluations and physical examination.
as §2

CC(C)(C)C(=O)NCc1ccc(Cl)c(-c2nn(-c3ccc(C(F)(F)F)cc3)c(=O)[nH]2)c1 [Compound I, N-(4-chloro-3-(5-oxo-1-(4-(trifluoromethyl)phenyl)-4,5-dihydro-1H-1,2,4-triazol-3-yl)benzyl)pivalamide]
persistence of inhibition ([1]; 1000 mg single dose): still apparent at 336 hours
time for which near maximal inhibition was retained ([1]; 250 and 500 mg single doses): at least 168 hours
time for which reduction in PGE2 release was apparent ([1]; lower doses, post-dose): approximately 24 hours
EAUC0-24 h, Difference in LS mean versus placebo ([1]; single oral dose 10 mg): 956 % · h
EAUC0-24 h, LS mean ([1]; single oral dose 10 mg): 898 % · h
EAUC0-336 h, Difference in LS mean versus placebo ([1]; single oral dose 10 mg): −5321 % · h
EAUC0-336 h, LS mean ([1]; single oral dose 10 mg): −3824 % · h
ETmax (time to reach maximum effect), Median ([1]; single oral dose 10 mg): 4.00 h
ETmax, Median difference versus placebo ([1]; single oral dose 10 mg): -8.02 h
Epeak (maximum % inhibition), LS mean ([1]; single oral dose 10 mg): 77.7%
Epeak, Difference in LS mean versus placebo ([1]; single oral dose 10 mg): 9.90%
EAUC0-24 h, Difference in LS mean versus placebo ([1]; single oral dose 30 mg): 1028 % · h
EAUC0-24 h, LS mean ([1]; single oral dose 30 mg): 970 % · h
EAUC0-336 h, Difference in LS mean versus placebo ([1]; single oral dose 30 mg): 7240 % · h
EAUC0-336 h, LS mean ([1]; single oral dose 30 mg): 8736 % · h
ETmax (time to reach maximum effect), Median ([1]; single oral dose 30 mg): 3.04 h
ETmax, Median difference versus placebo ([1]; single oral dose 30 mg): -8.98 h
Epeak (maximum % inhibition), LS mean ([1]; single oral dose 30 mg): 72.8%
Epeak, Difference in LS mean versus placebo ([1]; single oral dose 30 mg): 4.94%
EAUC0-24 h, Difference in LS mean versus placebo ([1]; single oral dose 100 mg): 1709 % · h
EAUC0-24 h, LS mean ([1]; single oral dose 100 mg): 1650 % · h
EAUC0-336 h, Difference in LS mean versus placebo ([1]; single oral dose 100 mg): 10115 % · h
EAUC0-336 h, LS mean ([1]; single oral dose 100 mg): 11612 % · h
ETmax (time to reach maximum effect), Median ([1]; single oral dose 100 mg): 7.02 h
ETmax, Median difference versus placebo ([1]; single oral dose 100 mg): -7.50 h
Epeak (maximum % inhibition), LS mean ([1]; single oral dose 100 mg): 91.6%
Epeak, Difference in LS mean versus placebo ([1]; single oral dose 100 mg): 23.8%
EAUC0-24 h, Difference in LS mean versus placebo ([1]; single oral dose 250 mg): 1608 % · h
EAUC0-24 h, LS mean ([1]; single oral dose 250 mg): 1550 % · h
EAUC0-336 h, Difference in LS mean versus placebo ([1]; single oral dose 250 mg): 12965 % · h
EAUC0-336 h, LS mean ([1]; single oral dose 250 mg): 14461 % · h
ETmax (time to reach maximum effect), Median ([1]; single oral dose 250 mg): 2.03 h
ETmax, Median difference versus placebo ([1]; single oral dose 250 mg): -9.94 h
Epeak (maximum % inhibition), LS mean ([1]; single oral dose 250 mg): 92.8%
Epeak, Difference in LS mean versus placebo ([1]; single oral dose 250 mg): 24.9%
EAUC0-24 h, Difference in LS mean versus placebo ([1]; single oral dose 500 mg): 1766 % · h
EAUC0-24 h, LS mean ([1]; single oral dose 500 mg): 1707 % · h
EAUC0-336 h, Difference in LS mean versus placebo ([1]; single oral dose 500 mg): 16417 % · h
EAUC0-336 h, LS mean ([1]; single oral dose 500 mg): 17914 % · h
ETmax (time to reach maximum effect), Median ([1]; single oral dose 500 mg): 12.0 h
ETmax, Median difference versus placebo ([1]; single oral dose 500 mg): -0.0333 h
Epeak (maximum % inhibition), LS mean ([1]; single oral dose 500 mg): 87.7%
Epeak, Difference in LS mean versus placebo ([1]; single oral dose 500 mg): 19.9%
EAUC0-24 h, Difference in LS mean versus placebo ([1]; single oral dose 1000 mg): 1086 % · h
EAUC0-24 h, LS mean ([1]; single oral dose 1000 mg): 1028 % · h
EAUC0-336 h, Difference in LS mean versus placebo ([1]; single oral dose 1000 mg): 17780 % · h
EAUC0-336 h, LS mean ([1]; single oral dose 1000 mg): 19277 % · h
ETmax (time to reach maximum effect), Median ([1]; single oral dose 1000 mg): 144 h
ETmax, Median difference versus placebo ([1]; single oral dose 1000 mg): 112 h
Epeak (maximum % inhibition), LS mean ([1]; single oral dose 1000 mg): 81.8%
Epeak, Difference in LS mean versus placebo ([1]; single oral dose 1000 mg): 14.0%
inhibition of ex vivo LPS-induced PGE2 release (in words) ([1]; single oral doses from 10 mg to 1000 mg): marked dose-dependent inhibition
dose proportionality of exposure ([2]; 10 to 250 mg dose range): Near proportional increases
pharmacokinetic differences in elderly subjects ([2]; elderly subjects, single dose 250 mg): No notable pharmacokinetic differences
dose proportionality of exposure ([2]; higher doses (250 to 1000 mg)): sub-proportional increases
half-life ([2]; human, plasma, single oral doses 10 to 1000 mg, independent of dose, read-out: mean T1/2): 41.7 to 54.5 h
Tmax ([2]; human, plasma, single oral doses of 10 and 30 mg, read-out: median Tmax): 2 h
dose effect on incidence or severity of treatment-emergent AEs [3]: no evidence of a dose effect
lab abnormalities or ECG findings [3]: No clinically significant lab abnormalities or ECG findings
tolerability ([3]; healthy adult subjects): well tolerated
